Measured values from the NIST ThermoML archive (doi:10.1021/je400231q).
Numbers after ± are expanded uncertainties.

Settings: 101.33 kPa, Liquid, Vibrating tube method

Row | Structure (SMILES) | mass density (293.15 K) | mass density (298.15 K) | mass density (303.15 K) | mass density (308.15 K) | mass density (313.15 K) | mass density (318.15 K) | mass density (323.15 K) | mass density (328.15 K)
1 | CC(CC(C)(C)C)CP(=O)([O-])CC(C)CC(C)(C)C.CCCCCCCCCCCCCC[P+](CCCCCC)(CCCCCC)CCCCCC | 894 ± 11 kg/m3 | 890.8 ± 11 kg/m3 | 887.7 ± 11 kg/m3 | 884.6 ± 11 kg/m3 | 881.5 ± 11 kg/m3 | 878.4 ± 11 kg/m3 | 875.3 ± 11 kg/m3 | 872.3 ± 11 kg/m3
2 | CC(=O)[O-].CCn1cc[n+](C)c1 [1-ethyl-3-methylimidazolium acetate] | 1101.5 ± 12 kg/m3 | 1098.3 ± 12 kg/m3 | 1095.1 ± 12 kg/m3 | 1092 ± 12 kg/m3 | 1088.9 ± 12 kg/m3 | 1085.8 ± 12 kg/m3 | 1082.8 ± 12 kg/m3 | 1079.7 ± 12 kg/m3
3 | CCOS(=O)(=O)[O-].CCn1cc[n+](C)c1 [1-ethyl-3-methylimidazolium ethyl sulfate] | 1236.7 ± 13 kg/m3 | 1233.2 ± 12 kg/m3 | 1229.8 ± 12 kg/m3 | 1226.3 ± 12 kg/m3 | 1222.9 ± 12 kg/m3 | 1219.5 ± 12 kg/m3 | 1216.2 ± 12 kg/m3 | 1212.8 ± 12 kg/m3
4 | CCn1cc[n+](C)c1.CS(=O)(=O)[O-] [1-ethyl-3-methylimidazolium methanesulfonate] | 1244.4 ± 13 kg/m3 | 1240.9 ± 13 kg/m3 | 1237.4 ± 13 kg/m3 | 1233.9 ± 12 kg/m3 | 1230.5 ± 12 kg/m3 | 1227 ± 12 kg/m3 | 1223.7 ± 12 kg/m3 | 1220.3 ± 12 kg/m3
5 | CCn1cc[n+](C)c1.N#C[S-] [1-ethyl-3-methylimidazolium thiocyanate] | 1119.2 ± 12 kg/m3 | 1116.1 ± 12 kg/m3 | 1113 ± 12 kg/m3 | 1109.9 ± 12 kg/m3 | 1106.9 ± 12 kg/m3 | 1103.8 ± 12 kg/m3 | 1100.8 ± 12 kg/m3 | 1097.8 ± 12 kg/m3
6 | COS(=O)(=O)[O-].C[N+](CCO)(CCO)CCO [tris(2-hydroxyethyl) methylammonium methylsulfate] | 1347.2 ± 14 kg/m3 | 1344.3 ± 14 kg/m3 | 1341.4 ± 13 kg/m3 | 1338.5 ± 13 kg/m3 | 1335.7 ± 13 kg/m3 | 1332.9 ± 13 kg/m3 | 1330.2 ± 13 kg/m3 | 1327.4 ± 13 kg/m3
